The values below are quoted from earlier work in patent publication US10716959B2, “Polymer-flavonoid conjugates and hydrogels for biomedical applications” (AGENCY FOR SCIENCE, TECHNOLOGY AND RESEARCH, priority 2013, dated 2020).

The conditions of this data set: physiological temperature and pH.

`O=C(O[C@@H]1Cc2c(O)cc(O)cc2O[C@@H]1c1cc(O)c(O)c(O)c1)c1cc(O)c(O)c(O)c1` [EGCG, (−)-epigallocatechin-3-gallate]: the half-life result is “less than 30 min”.
